The text below walks through data of article PMC12057359, “Inhibitory effect of copper chelators on the budding in Candida albicans” (Antimicrobial Agents and Chemotherapy, 2025).

Read-outs that look alike come from different tables or passages of the source. Bounds are passed on as bounds.

Series [1] concerns C. albicans JCM1542. The series is described as follows: iHOPE antimicrobial microdilution assay (turbidity OD600). It counts as cell-based, Candida albicans. A general note: In broth dilution the organism is exposed to a series of concentrations in liquid medium.
In series [2] the test system is C. glabrata JCM3761. Described as above. It counts as cell-based, Candida glabrata. Conditions: Nakaseomyces glabratus, JCM3761; MOPS-RPMI medium, 24 h; SD in parentheses, n = 3; read-out: IC50 against C. glabrata JCM3761.
For series [3], the system named is C. tropicalis JCM1541. The description is as above. It counts as cell-based. Conditions: Candida tropicalis, JCM1541; MOPS-RPMI medium, 24 h; SD in parentheses, n = 3; read-out: IC50 against C. tropicalis JCM1541.
Series [4] deals with C. auris Ci6684. The description is as above. It counts as cell-based, Candida auris. The conditions noted are these: Candidozyma auris, CI6684; MOPS-RPMI medium, 24 h; SD in parentheses, n = 3; read-out: IC50 against C. auris Ci6684.
Series [5] relates to C. auris VPCI673. The series is described as above. It counts as cell-based, Candida auris. Conditions: Candidozyma auris, VPCI673; MOPS-RPMI medium, 24 h; SD in parentheses, n = 3; read-out: IC50 against C. auris VPCI673.
Series [6] deals with A. fumigatus Af293. Put plainly: iHOPE antimicrobial microdilution assay. It counts as cell-based, Aspergillus fumigatus. Conditions: Aspergillus fumigatus, AF293; SD in parentheses, n = 3; read-out: IC50 against A. fumigatus Af293.
In series [7] the test system is P. oryzae Kita-1. The series is described as follows: microbe, parasite or virus in culture. It counts as cell-based, Pyricularia oryzae. The conditions noted are these: Pyricularia oryzae, KITA1, read-out: IC50 against P. oryzae Kita-1.
The test system of series [8] is S. aureus 209P. The series is described as follows: iHOPE antimicrobial microdilution assay. It counts as cell-based, Staphylococcus aureus. Conditions: Staphylococcus aureus, 209P; SD in parentheses, n = 3; read-out: IC50 against S. aureus 209P.
For series [9], the system named is E. coli HO-141. Put plainly: iHOPE antimicrobial microdilution assay. It counts as cell-based, Escherichia coli. Conditions: Escherichia coli, HO141; SD in parentheses, n = 3; read-out: IC50 against E. coli HO-141.
Series [10] is described as follows: iHOPE in vitro cytotoxicity assessment (Cell Count Reagent SF). The conditions noted are these: human. The series is classed as cell-based, human.
Protocol: The method for in vitro cytotoxicity assessment using Cell Count Reagent SF (Nacalai Tesque) has been described previously ([15]). […] Test compounds were added to the culture medium, and then the plates were incubated at 28°C for 24 h.
Series [11] relates to C. albicans JCM1542. The series is classed as cell-based, Candida albicans.
[12] abbreviates: Candida albicans, JCM1542; MOPS-RPMI medium, 28°C, 24 h, OD600; standard deviation in parentheses, n = 3; read-out: IC50 against C. albicans JCM1542.
Where [13] appears, read: C. albicans JCM1542, MOPS-RPMI medium, 24 h.
The mark [14] stands for this setting: SD in parentheses, n = 3, read-out: IC50 against HL-60 RCB0041 (cytotoxicity).
The mark [15] stands for this setting: Candida albicans, JCM1542, 24 h, read-out: IC50 against C. albicans JCM1542.

The term IC50 denotes the concentration that inhibits the measured activity by half. As for `Nc1nc(=O)[nH]cc1F` [5-FC, 5-fluorocytosine], the IC50 came to 0.19 µM in [1] (setting [12]); 0.081 µM in series [2]; 0.11 µM in [3]; 0.37 µM in series [4]; 0.27 µM in series [5]; 15 µM in series [6]. Further, the IC50 in series [7], in series [8], in series [9] and in series [10] was above 30 µM throughout. Also, the “morphological change induced in C. albicans” value (from here on “morphological change induced”) in series [11] (setting [13]) is listed as “hyphal-rich morphology”.

`[C-]#[N+][C@H](C)CC(=O)NCc1ccc(N)cc1` [8a]: in series [1] (C. albicans JCM1542), the “antifungal activity / inhibition of budding against C. albicans (in words)” value (shortened to “antifungal activity / inhibition”) was “weak antifungal activity and inhibition of budding”. In addition, the IC50 is 0.77 µM in series [1] (setting [12]) and above 30 µM in series [10] (setting [14]).

`[C-]#[N+][C@@H](C)CC(=O)NCc1ccc(N)cc1` [8b]: the “antifungal activity / inhibition” value in series [1] (C. albicans JCM1542) is “weak antifungal activity and inhibition of budding”. Also, the IC50 in [1] (setting [12]) was 1.8 µM; in [10] (setting [14]) it was above 30 µM.

As to `[C-]#[N+][C@H](C)CC(=O)NCc1ccc(NC(=O)C[C@@H](C)[N+]#[C-])cc1` [10a], the IC50 in [1] (setting [12]) was 0.38 µM; in series [10] (setting [14]), above 30 µM.

With `[C-]#[N+][C@@H](C)CC(=O)NCc1ccc(NC(=O)C[C@H](C)[N+]#[C-])cc1` [10b], the IC50 in [1] (setting [12]) is 0.19 µM; in series [10] (setting [14]), above 30 µM.

On to `[C-]#[N+][C@H](C)CC(=O)NCCc1ccc(NC(=O)C[C@@H](C)[N+]#[C-])cc1` [12a], for which the IC50 in series [1] (setting [12]) is 0.012 µM; in series [2] it was 0.01 µM; in series [3] it was 0.013 µM; in series [4], 0.058 µM; in series [5], 0.18 µM; in series [10] (setting [14]), above 30 µM.

For `[C-]#[N+][C@@H](C)CC(=O)NCCc1ccc(NC(=O)C[C@H](C)[N+]#[C-])cc1` [12b], the IC50 in series [1] (setting [12]) was 0.012 µM; in series [2], 0.012 µM; in [3], 0.012 µM; in [4], 0.055 µM; in [5], 0.14 µM; in [10] (setting [14]) it was above 30 µM.

Consider `[C-]#[N+][C@H](C)CC(=O)Nc1ccc(NC(=O)C[C@@H](C)[N+]#[C-])cc1` [13a], for which the results for the IC50 in series [1] (setting [12]) and in [10] (setting [14]) were 0.41 µM and above 30 µM, respectively.

As to `[C-]#[N+][C@@H](C)CC(=O)Nc1ccc(NC(=O)C[C@H](C)[N+]#[C-])cc1` [13b], the values for the IC50 in series [1] (setting [12]) and in [10] (setting [14]) were 0.034 µM and above 30 µM, respectively.

As for `[C-]#[N+][C@H](C)CC(=O)Nc1cccc(NC(=O)C[C@@H](C)[N+]#[C-])c1` [14a], the IC50 in series [1] (setting [12]) was 0.054 µM; in [10] (setting [14]), above 30 µM.

As for `[C-]#[N+][C@@H](C)CC(=O)Nc1cccc(NC(=O)C[C@H](C)[N+]#[C-])c1` [14b], the IC50 in [1] (setting [12]) is 0.02 µM; in series [10] (setting [14]), above 30 µM.

Regarding `[C-]#[N+][C@H](C)CC(=O)N[C@H]1CC[C@@H](NC(=O)C[C@@H](C)[N+]#[C-])CC1` [15a], the IC50 in series [1] (setting [12]) is 0.015 µM; in [2] it was 0.0082 µM; in series [3], 0.032 µM; in series [4] it was 0.049 µM; in [5], 0.064 µM; in series [10] (setting [14]) it was above 30 µM.

`[C-]#[N+][C@@H](C)CC(=O)N[C@H]1CC[C@@H](NC(=O)C[C@H](C)[N+]#[C-])CC1` [15b]: the IC50 is 0.019 µM in [1] (setting [12]); 0.01 µM in series [2]; 0.026 µM in series [3]; 0.062 µM in [4]; 0.034 µM in [5]; above 30 µM in [10] (setting [14]).

As to `[C-]#[N+][C@H](C)CC(=O)N[C@H]1CC[C@H](NC(=O)C[C@@H](C)[N+]#[C-])CC1` [16a], the IC50 was 0.61 µM in [1] (setting [12]) and above 30 µM in series [10] (setting [14]).

Take `[C-]#[N+][C@@H](C)CC(=O)N[C@H]1CC[C@H](NC(=O)C[C@H](C)[N+]#[C-])CC1` [16b]: the IC50 in [1] (setting [12]) is 0.61 µM; in [10] (setting [14]), above 30 µM.

With `C[C@@H]1[C@H](O)[C@@H](C)/C=C/C=C/C=C/C=C/C=C/C=C/C=C/[C@H](O[C@@H]2O[C@H](C)[C@@H](O)[C@H](N)[C@@H]2O)C[C@@H]2O[C@](O)(C[C@@H](O)C[C@@H](O)[C@H](O)CC[C@@H](O)C[C@@H](O)CC(=O)O[C@H]1C)C[C@H](O)[C@H]2C(=O)O` [Amphotericin B, amphotericin B], the IC50 in [1] (setting [12]) turned out to be 0.039 µM; in series [2], 0.063 µM; in series [3], 0.046 µM; in [4], 0.41 µM; in series [5] it was 0.44 µM; in series [6] it was 0.21 µM. Also, the half-maximal inhibitory concentration (IC50) was 0.16 µM in series [7], above 30 µM in series [8], above 30 µM in series [9] and 17 µM in series [10]. Further, in [11], the “morphological change induced” value is on record as “yeast-rich morphology”.

Take `CCCCCC[C@H]1C(=O)O[C@H](C)[C@H](NC(=O)c2cccc(NC=O)c2O)C(=O)O[C@@H](C)[C@@H]1OC(=O)CC(C)C` [Antimycin A, antimycin A]: the half-inhibitory concentration (IC50) in [1] (setting [15]) is 0.035 µM.

Turning to `CC(C)(S)[C@@H](N)C(=O)O` [D-Penicillamine, D-penicillamine], the IC50 in [2] is 270 µM; in series [3], above 1000 µM; in series [4] it was above 1000 µM; in series [5], above 1000 µM; in [6], above 1000 µM; in series [7], above 1000 µM. Further, the half-inhibitory concentration (IC50) in series [8], in series [9] and in series [10] was above 1000 µM in each case. In addition, the “morphological change induced” value in series [11] (setting [13]) is “morphological changes similar to those observed with SF2768”.

For the compound `OC(Cn1cncn1)(Cn1cncn1)c1ccc(F)cc1F` [Fluconazole, fluconazole], the IC50 in series [1] (setting [12]) is 0.39 µM; in series [2], 0.69 µM; in series [3], 0.4 µM; in [4], above 30 µM; in series [5], above 30 µM; in series [6] it was above 30 µM. In addition, the IC50 in series [7] was above 30 µM; in series [8], above 30 µM; in series [9] it was above 30 µM; in series [10] (HL-60 RCB0041 cells (promyelocytic leukemia cell line), SD in parentheses, n = 3, read-out: IC50 against HL-60 RCB0041 (cytotoxicity)) it was above 30 µM. In addition, the “morphological change induced” value in [11] is “yeast-rich morphology”.

Regarding `OO` [H2O2], the IC50 in [1] (MOPS-RPMI medium, 28°C, 24 h, OD600; standard deviation in parentheses, n = 3; read-out: IC50 against C. albicans JCM1542) was 550 µM.

Consider `C/C=C(\C)[C@H](O)[C@H](C)/C=C(C)/C=C/C/C(C)=C/Cc1nc(OC)c(OC)c(O)c1C` [Piericidin A, piericidin A], for which, in [1] (setting [15]), the IC50 is 12 µM.

In the case of `COc1cc(-c2ccccn2)nc(/C=N/O)c1SC` [collismycin], the “morphological change induced” value in [11] (setting [13]) was “elongated, but not as long as SF2768, and tortuous hyphae”.

For the compound `C/C=C/C(=O)NCc1ccc(N)cc1` [compound 9], in series [1] (C. albicans JCM1542), the “antifungal activity / inhibition” value is recorded as “did not mediate any changes in either the survival rate or morphology”. The IC50 in [1] (setting [12]) and in series [10] (setting [14]) was above 30 µM in each case.

Consider `CCCC(=O)NCc1ccc(NC(=O)CCC)cc1` [compound 11], for which the “antifungal activity / inhibition” value in series [1] (C. albicans JCM1542) was “did not mediate any changes in either the survival rate or morphology”. Further, the IC50 in [1] (setting [12]) and in series [10] (setting [14]) was above 30 µM in each case.

In the case of `CC(C)=CCC/C(C)=C/CC/C(C)=C/CO` [farnesol], in [11] (3 µM, MOPS-RPMI), the “growth form of C. albicans under hyphal growth conditions” value is recorded as “the cells grew as yeast form”.

For the compound oligomycin A, the IC50 in [1] (read-out: IC50 against C. albicans JCM1542; MOPS-RPMI medium, 28°C, 24 h, OD600; standard deviation in parentheses, n = 3) turned out to be 3.1 µM.
